Here are results for 1 compound from patent publication US20240122974A1, “TREATMENT OF MYOPIA” (University of Utah Research Foundation, priority 2021, published 2024).

SMILES strings stand for the structures. Like-named read-outs stand apart in the source and are kept apart here.

Series [1] concerns genetic model of guinea pig myopia. As to conditions: 0.22 mg/ml once a day. On the procedure: 0.22 mg/ml copper perchlorate was administered once a day for approximately 3 months to right eye only. The cycloplegic refraction was measured biweekly by a masked pediatric ophthalmologist.
Series [2] concerns the target T1, lysyl oxidase (LOX) (Homo sapiens, UniProt P28300). As to conditions: normal sclera cells, FIG. 8.
Target sequence in this assay (P28300 169-417, species assumed): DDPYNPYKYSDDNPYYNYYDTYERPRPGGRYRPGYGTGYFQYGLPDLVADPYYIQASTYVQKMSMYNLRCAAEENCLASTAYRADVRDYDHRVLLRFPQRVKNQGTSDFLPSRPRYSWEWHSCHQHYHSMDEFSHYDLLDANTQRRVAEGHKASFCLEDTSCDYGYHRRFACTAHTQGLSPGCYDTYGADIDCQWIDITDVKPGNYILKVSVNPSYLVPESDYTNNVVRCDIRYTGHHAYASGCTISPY
Series [3] concerns genetic model of guinea pig myopia. Kind of series: Genetic model of guinea pig myopia, 0.35 mg/ml eye drops twice a day.
Procedure: Copper perchlorate was administered at 0.35 mg/ml to guinea pigs.
The test system of series [4] is sclera of guinea pig pups. Conditions: 0.08 mg/mL copper perchlorate hexahydrate eye drops twice a day, 6-8 weeks, n=5; untreated sclera 3.9×10^−4; p=0.036. On the procedure:
Lysyl oxidase converts lysine to allysine, and conjugates it to lysine or hydroxylysine spontaneously, becoming lysinonorleucine (LNL), an established biomarker of collagen crosslinking. […] After 6 weeks the scleras were dissected and analyzed for LNL content using mass spectroscopy (LC-MS). Semi-quantitative mass spectral analysis was performed using a Sciex 6500 Q-Trap (Sciex, Framingham, MA).

Series [5] deals with spontaneous myopic albino guinea pigs. Kind of series: Spontaneous myopic progression in albino guinea pig pups. Conditions: 0.22 mg/mL twice a day.
Procedure: Spontaneous myopic albino guinea pigs were used as a model of pediatric myopia. […] Pups of albino guinea pigs were used as a pediatric model starting at age 4-7 days. In this group of n=5 pups, all left eyes were untreated (internal control). The other eye (right eye) was treated with 0.22 mg/mL copper perchlorate hexahydrate twice a day. Treatment started at approximately 1 week of age and continued for approximately 2 months. Measurements were taken between 5-7 days of age (baseline-no treatment) and then biweekly. We examined refractive error by streak retinoscopy after dilation, and axial length by Lenstar biometry (Haag-Streit). Cycloplegic refractive error and cornea inflammation was measured by a masked pediatric ophthalmologist.
Series [6] has as its target T1, lysyl oxidase (LOX). The procedure:
To examine LOX activity in normal corneal cells with copper perchlorate and to compare activity with copper sulfate, cultured corneal stroma cells from normal corneas (n=3 each) in 10% fetal bovine serum (FBS) DMEM were either exposed to copper sulfate or copper perchlorate in BSS then filtered through a 0.25 μm filter. Conditioned culture medium underwent a peroxidase-coupled fluorometric activity assay for LOX using Amplex red. As a parallel assay, we added 500 uM aminopropionitrile (BAPN) which can diminish LOX activity completely. The fluorescence of oxidized Amplex red was recorded every 10 minutes using fluorescence plate reader. After subtracting the background fluorescence, the fluorescence intensity was plotted against the incubation time (FIG. 1).
Target sequence in this assay (P28300 169-417): as the sequence (P28300 169-417, species assumed) above

The subject of series [7] is sclera of guinea pig pups. As to conditions: 0.08 mg/mL copper perchlorate hexahydrate eye drops twice a day, 8 weeks, n=3, vs untreated sclera, FIG. 3. On the procedure: After eight weeks the sclera was dissected for creep compliance testing. Compliance was tested using an Instrong 5943 Mechanical Testing system with custom grips and a 5 N Futek load cell. Each of the six specimens were loaded to 0.005 kgf, corresponding to an equivalent pressure of 12.0-16.6 mmHg depending on specimen dimensions.

For the compound `O.O.O.O.O.O.[Cu+2].[O-][Cl+3]([O-])([O-])[O-].[O-][Cl+3]([O-])([O-])[O-]` [copper perchlorate, copper (II) perchlorate hexahydrate], the “more myopia developed in untreated left eyes than in treated right eyes (change from baseline)” value in series [1] (Day 81) was 2.27 diopters. Further, in series [1] (about 3 months, right eye only, p=0.0189), the “slope analysis: refractive error decrease, untreated left eye more than treated right eye” value is given as 0.027(sd=0.011) per day. Besides, the LOX enzyme activity result at lysyl oxidase (LOX) [2] is “dramatically increased LOX enzyme activity in a dose response manner”. Besides, the “myopia at the end of the experiment, treated versus control eyes” value in series [3] (n=5) is “significantly less myopic”. For the same compound, in series [3] (n=5, p<0.05), the “axial elongation, treated versus control eye” value was “significantly reduced” and the “vitreous chamber depth elongation, treated versus control eye” value is “significantly reduced”. In addition, the “LNL response in treated sclera” value in series [4] worked out at 0.00069 µg/mg. Also, in series [5] (FIG. 5), the “axial length, treated eye (OD) compared to control eye (OS)” value is on record as “trend of reducing” and the “vitreous chamber depth, treated eye (OD) compared to control eye (OS)” value is given as “trend of reducing”. The “clinical observations of toxicity or discoloration of corneas” value in series [5] (about 2 months, topical to right eye) was “no toxicity or discoloration”. In addition, the “slowing of myopic progression in refractive error” value in series [5] (within 9 weeks of treatment, treated vs control eye, n=5) is listed as 48%. In addition, the “LOX activity compared with the same molar concentration of copper sulfate” value at lysyl oxidase (LOX) [6] (concentrations as low as 100 nM) is on record as “increased LOX activity more than the same molar concentration of copper sulfate”. The “induction of LOX activity compared with copper sulfate” value on lysyl oxidase (LOX) [6] (keratoconic human cornea stroma cells, concentration as low as 100 nM, FIG. 1B) is given as “higher induction of LOX activity than copper sulfate”. For the same compound, the LOX enzyme activity entry at lysyl oxidase (LOX) [6] (normal corneal stroma cells, conditioned culture medium, FIG. 1a) is “dramatically increased LOX enzyme activity in a dose response manner”. The scleral creep compliance result in series [7] is “decreased creep compliance”.
